Numbers after ± are expanded uncertainties.
Assays:
[1] = Liquid; for mass density: 273.15 K, 101.33 kPa; for Normal boiling temperature: Ebulliometric method (Recirculating still)
[2] = refractive index (Na D-line) (dimensionless); details: 273.15 K; 101.33 kPa; Liquid; Standard Abbe refractometry

Row | mass density [1] [kg/m3] | Normal boiling temperature [1] [°C] | refractive index [2] | Compound
1 | 832.3 ± 1.2 | 185.1 ± 0.02 | – | CCCCC(CC)CO (stereo not given) [2-ethyl-1-hexanol]
2 | 992.7 ± 0.4 | 141.0 ± 0.02 | 1.3811 ± 0.0004 | CCC(=O)O [propanoic acid]

Reference: the NIST ThermoML archive (doi:10.1016/j.jct.2008.01.001)
